Results from patent publication US11071737B2, “Drug inclusion complex, preparation thereof, and preparation method thereof” (priority 2015, dated 2021).

Columns and labels:
[1] = Inclusion ability of different concentrations and kinds of cyclodextrins for encapsulating API
Experimental: Different kinds of cyclodextrins were dissolved with a pH 1.2 aqueous hydrochloric acid solution (0.1N) to determine the saturation concentration of each cyclodextrin.
(1) A certain amount of α-, β- and γ-cyclodextrin were weighed and added into a 10 mL volumetric flask, then added aqueous hydrochloric acid solution of pH 1.2 gradually until reaching the scale of the flask, shocked and performed ultrasound to dissolve the cyclodextrin. The maximum amount of cyclodextrin capable of being dissolved in a 10 mL solution was recorded.
(2) 8% α-cyclodextrin solution, 1% β-cyclodextrin solution, 20% γ-cyclodextrin solution, 20%, 30%, and 40% sulfobutyl ether-β-cyclodextrin solution and 20%, 30%, and 40% hydroxypropyl-β-cyclodextrin solution were formulated with hydrochloric acid aqueous solution of pH 1.2.
A certain amount of API was weighed and added into an appropriate volume of the cyclodextrin solution. If API was completely dissolved, the solution was filtered with a 0.45 μm PTFE filter membrane, and pH was slowly adjusted to 4.0 with a 5N NaOH aqueous solution and a 0.1N NaOH aqueous solution, observing during the pH adjusting procedure. If the solution becomes turbid when adjusting the pH, try to reduce the concentration of API. The clear solution after the pH adjustment was left to stand to observe the state of the solution after standing for 2 hours, 4 hours, and 24 hours.

[2] = Formulation of drug-containing HP-β-CD solutions (concentration by HPLC, observation on standing); settings: 21 mg/ml added to 30% HP-β-CD solution pH 1.2, not completely dissolved, 0.45 μm PES filter
Experimental: The drug was dissolved completely by ultrasound (ultrasonic frequency was 59 kHz).
4. pH adjustment: The pH of the drug solution was adjusted to about 6.0 with 5N NaOH aqueous solution and 0.1 N NaOH aqueous solution.

O=C(Cc1ccc(-c2ccc(N3CCOCC3)cc2)cn1)NCc1cccc(F)c1.O=S(=O)(O)c1ccccc1 [KX2-361.benzene sulfonate]
Solution phenomenon when pH is adjusted to 4 ([1]; API 0.5 mg/ml in 20% γ-CD (174:1)): turbid | concentration after filtering, calibrated with HPLC [2]: 20660 µg/mL

OC[C@H]1O[C@@H]2O[C@H]3[C@H](O)[C@@H](O)[C@@H](O[C@H]4[C@H](O)[C@@H](O)[C@@H](O[C@H]5[C@H](O)[C@@H](O)[C@@H](O[C@H]6[C@H](O)[C@@H](O)[C@@H](O[C@H]7[C@H](O)[C@@H](O)[C@@H](O[C@H]1[C@H](O)[C@H]2O)O[C@@H]7CO)O[C@@H]6CO)O[C@@H]5CO)O[C@@H]4CO)O[C@@H]3CO [α-cyclodextrin]
maximum solubility in aqueous hydrochloric acid solution of pH 1.2 ([1]; % (w/v), 10 mL): about 8%

OC[C@H]1O[C@@H]2O[C@H]3[C@H](O)[C@@H](O)[C@@H](O[C@H]4[C@H](O)[C@@H](O)[C@@H](O[C@H]5[C@H](O)[C@@H](O)[C@@H](O[C@H]6[C@H](O)[C@@H](O)[C@@H](O[C@H]7[C@H](O)[C@@H](O)[C@@H](O[C@H]8[C@H](O)[C@@H](O)[C@@H](O[C@H]1[C@H](O)[C@H]2O)O[C@@H]8CO)O[C@@H]7CO)O[C@@H]6CO)O[C@@H]5CO)O[C@@H]4CO)O[C@@H]3CO [β-cyclodextrin]
maximum solubility in aqueous hydrochloric acid solution of pH 1.2 ([1]; pH 1.2): about 1%

OC[C@H]1O[C@@H]2O[C@H]3[C@H](O)[C@@H](O)[C@@H](O[C@H]4[C@H](O)[C@@H](O)[C@@H](O[C@H]5[C@H](O)[C@@H](O)[C@@H](O[C@H]6[C@H](O)[C@@H](O)[C@@H](O[C@H]7[C@H](O)[C@@H](O)[C@@H](O[C@H]8[C@H](O)[C@@H](O)[C@@H](O[C@H]9[C@H](O)[C@@H](O)[C@@H](O[C@H]1[C@H](O)[C@H]2O)O[C@@H]9CO)O[C@@H]8CO)O[C@@H]7CO)O[C@@H]6CO)O[C@@H]5CO)O[C@@H]4CO)O[C@@H]3CO [γ-cyclodextrin]
maximum solubility in aqueous hydrochloric acid solution of pH 1.2 ([1]; pH 1.2): about 20%
